Reference: ChEMBL document CHEMBL1124139, “2,4-Dihydro-3H-1,2,4-triazole-3-thiones as potential antidepressant agents” (J Med Chem, 1988)

What was measured:
Mus musculus [1] = organism: Mus musculus; experiment: Antidepressant activity was evaluated by measuring its ability to antagonize RO 4-1284-induced hypothermia in mice; format: functional
Mus musculus [2] = organism: Mus musculus; experiment: Antidepressant activity was evaluated by measuring its ability to antagonize reserpine-induced ptosis in mice; format: functional
[3] = Acute cytotoxicity was evaluated as LD50 in mice (ip); format: organism-based; settings: mouse, in vivo
[4] = biological target: T1, Amine oxidase [flavin-containing] B (Rattus norvegicus, UniProt P19643); experiment: Concentration required to inhibit Monoamine oxidase B in rat brain using [14C]phenylethylamine; format: tissue-based; design: Control: scale not given: the % may be the effect or the level left
T1 sequence (P19643 whole entry): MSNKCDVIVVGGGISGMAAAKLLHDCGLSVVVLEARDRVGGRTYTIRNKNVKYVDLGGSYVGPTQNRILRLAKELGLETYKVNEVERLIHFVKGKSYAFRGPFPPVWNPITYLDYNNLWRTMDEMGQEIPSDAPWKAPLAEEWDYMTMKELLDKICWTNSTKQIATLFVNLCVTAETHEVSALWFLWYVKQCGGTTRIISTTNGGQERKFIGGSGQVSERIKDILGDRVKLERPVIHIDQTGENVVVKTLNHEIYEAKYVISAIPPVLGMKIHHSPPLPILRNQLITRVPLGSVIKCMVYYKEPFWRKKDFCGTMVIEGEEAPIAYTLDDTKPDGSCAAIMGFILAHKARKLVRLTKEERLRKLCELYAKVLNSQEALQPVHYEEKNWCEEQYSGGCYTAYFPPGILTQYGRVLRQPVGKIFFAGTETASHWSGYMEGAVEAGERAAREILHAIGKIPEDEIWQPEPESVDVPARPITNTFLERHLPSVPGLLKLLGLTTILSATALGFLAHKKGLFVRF

[5] = biological target: T2, Amine oxidase [flavin-containing] A (Rattus norvegicus, UniProt P21396); experiment: Concentration required to inhibit Monoamine oxidase A activity in rat brain using [14C]5-HT; format: tissue-based
T2 sequence (P21396 whole entry): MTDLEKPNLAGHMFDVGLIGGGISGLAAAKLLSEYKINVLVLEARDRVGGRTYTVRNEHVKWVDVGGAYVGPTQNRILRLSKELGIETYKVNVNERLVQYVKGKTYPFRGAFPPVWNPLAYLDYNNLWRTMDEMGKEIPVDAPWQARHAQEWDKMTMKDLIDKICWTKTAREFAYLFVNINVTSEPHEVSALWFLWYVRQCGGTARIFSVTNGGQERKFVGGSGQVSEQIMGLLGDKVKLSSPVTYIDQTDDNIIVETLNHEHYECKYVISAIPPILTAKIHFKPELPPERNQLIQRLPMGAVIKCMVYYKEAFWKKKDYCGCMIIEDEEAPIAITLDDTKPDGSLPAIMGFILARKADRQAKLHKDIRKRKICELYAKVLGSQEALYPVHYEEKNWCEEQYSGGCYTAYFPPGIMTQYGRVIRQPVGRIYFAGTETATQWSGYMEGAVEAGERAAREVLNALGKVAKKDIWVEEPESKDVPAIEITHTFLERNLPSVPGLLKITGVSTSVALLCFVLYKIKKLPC

Rattus norvegicus [6] = organism: Rattus norvegicus; experiment: Concentration required to inhibit [3H]- NE(norepinephrine) uptake into rat cortical synaptosomes; format: functional; design: scale not given: the % may be the effect or the level left; settings: Brain
Rattus norvegicus [7] = organism: Rattus norvegicus; experiment: Concentration required to inhibit [3H]- NE(norepinephrine) uptake in to rat cortical synaptosomes; format: functional; design: scale not given: the % may be the effect or the level left; settings: Brain
Rattus norvegicus [8] = experiment: Inhibitory activity of compound against ability of NE to enhance the inhibition produced by GABA after 1 i.p. injection of 10 mg/kg administered (acute treatment); format: functional; settings: ip, route intraperitoneal
Rattus norvegicus [9] = experiment: Inhibitory activity of compound against ability of NE to enhance the inhibition produced by GABA after ip injection of 10 mg/kg administered once a day for 21 days (chronic treatment); format: functional; settings: 504 h, route intraperitoneal
Rattus norvegicus [10] = experiment: Percent inhibitory activity caused by norepinephrine after 1 i.p. injection of 10 mg/kg administered (acute treatment); format: functional; settings: ip, route intraperitoneal
Rattus norvegicus [11] = experiment: Percent inhibitory activity caused by norepinephrine after ip injection of 10 mg/kg administered once a day for 21 days (chronic treatment); format: functional; settings: 504 h, route intraperitoneal
Rattus norvegicus [12] = experiment: Ability of compound to inhibity the ability of NE to enhance the inhibition produced by GABA after 1 i.p. injection of 10 mg/kg administered (acute treatment); format: functional; settings: ip, route intraperitoneal
Rattus norvegicus [13] = experiment: Ability of compound to inhibity the ability of NE to enhance the inhibition produced by GABA after ip injection of 10 mg/kg administered once a day for 21 days (chronic treatment); format: functional; settings: 504 h, route intraperitoneal

Cn1nc(-c2ccccc2)n(C)c1=O
ED50 (Mus musculus [1]): > 50 mg/kg
ED50 (Mus musculus [2]): > 200 mg/kg
LD50 [3]: 400 mg/kg

Cn1c(S)nnc1-c1ccccc1
ED50 (Mus musculus [1]): > 50 mg/kg
ED50 (Mus musculus [2]): > 200 mg/kg
LD50 [3]: > 800 mg/kg

Cn1nc(-c2ccc(F)cc2F)n(C)c1=S
ED50 (Mus musculus [1]): 1 mg/kg
ED50 (Mus musculus [2]): 2.37 mg/kg
LD50 [3]: 400 mg/kg

Sc1n[nH]c(-c2ccc(Cl)cc2)n1
ED50 (Mus musculus [1]): > 50 mg/kg
ED50 (Mus musculus [2]): > 200 mg/kg
LD50 [3]: > 800 mg/kg

C#CCN(C)Cc1ccccc1 [PARGYLINE]
ED50 (Mus musculus [1]): 13.6 mg/kg
ED50 (Mus musculus [2]): 37.1 mg/kg
LD50 [3]: 400 mg/kg

Cn1nc(-c2ccccc2)n(C)c1=S
ED50 (Mus musculus [1]): 0.15 mg/kg
ED50 (Mus musculus [2]): 0.13 mg/kg
LD50 [3]: 100 mg/kg
MAO-B activity (% of control) [4]: 110%
MAO-A activity remaining (% of control) [5]: 104%
Control (Rattus norvegicus [6]): 92%

Cc1ccc(-c2nn(C)c(=S)n2C)cc1
ED50 (Mus musculus [1]): 1.74 mg/kg
ED50 (Mus musculus [2]): 4.2 mg/kg
LD50 [3]: 400 mg/kg

CCn1c(-c2ccccc2)nn(C)c1=S
ED50 (Mus musculus [1]): 0.58 mg/kg
ED50 (Mus musculus [2]): 1.2 mg/kg
LD50 [3]: 400 mg/kg

Cn1nc(-c2ccccc2F)n(C)c1=S
ED50 (Mus musculus [1]): 0.74 mg/kg
ED50 (Mus musculus [2]): 0.23 mg/kg
LD50 [3]: 400 mg/kg
MAO-B activity (% of control) [4]: 96%
MAO-A activity remaining (% of control) [5]: 72%
Control (Rattus norvegicus [6]): 106%

CCn1nc(-c2ccc(Cl)cc2)n(C)c1=S
ED50 (Mus musculus [1]): > 50 mg/kg
ED50 (Mus musculus [2]): 100 mg/kg
LD50 [3]: 400 mg/kg

CCn1c(-c2ccc(Cl)cc2)nn(C)c1=S
ED50 (Mus musculus [1]): > 50 mg/kg
ED50 (Mus musculus [2]): 21.2 mg/kg
LD50 [3]: > 800 mg/kg

Cn1nc(-c2cccc(C(F)(F)F)c2)n(C)c1=S
ED50 (Mus musculus [1]): > 50 mg/kg
ED50 (Mus musculus [2]): > 200 mg/kg
LD50 [3]: 400 mg/kg

CNCCCC1c2ccccc2C=Cc2ccccc21 [PROTRIPTYLINE]
ED50 (Mus musculus [1]): 0.14 mg/kg
ED50 (Mus musculus [2]): 0.43 mg/kg
LD50 [3]: 50 mg/kg

Cn1nc(-c2cccc(F)c2)n(C)c1=S [SURITOZOLE]
ED50 (Mus musculus [1]): 0.37 mg/kg
ED50 (Mus musculus [2]): 0.29 mg/kg
LD50 [3]: 200 mg/kg
MAO-B activity (% of control) [4]: 96%
MAO-A activity remaining (% of control) [5]: 105%
Control (Rattus norvegicus [7]): 110%

Cn1nc(-c2ccc(Cl)cc2)nc1S
ED50 (Mus musculus [1]): > 50 mg/kg
ED50 (Mus musculus [2]): > 200 mg/kg
LD50 [3]: > 800 mg/kg

CCCn1c(-c2ccc(Cl)cc2)nn(C)c1=S
ED50 (Mus musculus [1]): > 12.5 mg/kg
ED50 (Mus musculus [2]): 12.5 mg/kg
LD50 [3]: 200 mg/kg

Cn1nc(-c2c(F)cccc2F)n(C)c1=S
ED50 (Mus musculus [1]): 0.44 mg/kg
ED50 (Mus musculus [2]): 0.36 mg/kg
LD50 [3]: 400 mg/kg
MAO-B activity (% of control) [4]: 97%
MAO-A activity remaining (% of control) [5]: 104%
Control (Rattus norvegicus [7]): 105%

Cn1nc(-c2ccccc2Cl)n(C)c1=S
ED50 (Mus musculus [1]): 0.37 mg/kg
ED50 (Mus musculus [2]): 0.58 mg/kg
LD50 [3]: 200 mg/kg

Cn1nc(-c2ccc3c(c2)OCO3)n(C)c1=S
ED50 (Mus musculus [1]): > 50 mg/kg
ED50 (Mus musculus [2]): > 200 mg/kg
LD50 [3]: > 800 mg/kg

C#CCN(C)[C@H](C)Cc1ccccc1 [SELEGILINE]
ED50 (Mus musculus [1]): 1.8 mg/kg
ED50 (Mus musculus [2]): 4.9 mg/kg
LD50 [3]: 200 mg/kg
Control [4]: 13%

CNCCCN1c2ccccc2CCc2ccccc21 [DESIPRAMINE]
ED50 (Mus musculus [1]): 0.94 mg/kg
ED50 (Mus musculus [2]): 1.86 mg/kg
LD50 [3]: 75 mg/kg
Control (Rattus norvegicus [7]): 37%
inhibition in vivo at 10 mg/kg (Rattus norvegicus [8]): 68%
inhibition in vivo at 10 mg/kg (Rattus norvegicus [9]): 49%
inhibition in vivo at 10 mg/kg (Rattus norvegicus [10]): 3.5%
inhibition in vivo at 10 mg/kg (Rattus norvegicus [11]): 7.8%

Cn1c(S)nnc1-c1ccc(Cl)cc1
ED50 (Mus musculus [1]): > 50 mg/kg
ED50 (Mus musculus [2]): > 200 mg/kg
LD50 [3]: > 800 mg/kg

Cn1nc(-c2ccc(Cl)c(Cl)c2)n(C)c1=S
ED50 (Mus musculus [1]): 29 mg/kg
ED50 (Mus musculus [2]): 4.4 mg/kg
LD50 [3]: > 800 mg/kg

COc1ccc(-c2nn(C)c(=S)n2C)cc1
ED50 (Mus musculus [1]): > 25 mg/kg
ED50 (Mus musculus [2]): 3.3 mg/kg
LD50 [3]: > 800 mg/kg

CN(C)CCC=C1c2ccccc2CCc2ccccc21 [AMITRIPTYLINE]
ED50 (Mus musculus [1]): 0.36 mg/kg
ED50 (Mus musculus [2]): 8.73 mg/kg
LD50 [3]: 100 mg/kg

CC(Cc1ccccc1)NN (stereo not given) [PHENIPRAZINE]
ED50 (Mus musculus [1]): 1.1 mg/kg
ED50 (Mus musculus [2]): 1.61 mg/kg
LD50 [3]: 100 mg/kg

Fc1ccc(-c2n[nH]c(S)n2)cc1
ED50 (Mus musculus [1]): > 50 mg/kg
ED50 (Mus musculus [2]): > 200 mg/kg
LD50 [3]: 400 mg/kg

CNCCC=C1c2ccccc2CCc2ccccc21 [NORTRIPTYLINE]
ED50 (Mus musculus [1]): 0.71 mg/kg
ED50 (Mus musculus [2]): 4.85 mg/kg
LD50 [3]: 50 mg/kg

CN(C)CCCN1c2ccccc2CCc2ccccc21 [IMIPRAMINE]
ED50 (Mus musculus [1]): 0.5 mg/kg

Cn1c(S)nnc1-c1ccccc1F
ED50 (Mus musculus [1]): > 25 mg/kg
ED50 (Mus musculus [2]): > 200 mg/kg
LD50 [3]: > 800 mg/kg

Cn1nc(-c2ccc(F)cc2)n(C)c1=S
ED50 (Mus musculus [1]): 0.61 mg/kg
ED50 (Mus musculus [2]): 1 mg/kg
LD50 [3]: 200 mg/kg
MAO-B activity (% of control) [4]: 90%
MAO-A activity remaining (% of control) [5]: 70%
Control (Rattus norvegicus [7]): 104%

Cn1nc(-c2c(Cl)cccc2Cl)n(C)c1=S
ED50 (Mus musculus [1]): > 50 mg/kg
ED50 (Mus musculus [2]): > 100 mg/kg
LD50 [3]: 400 mg/kg

Cn1nc(-c2ccc(Cl)cc2)n(C)c1=S
ED50 (Mus musculus [1]): 1.34 mg/kg
ED50 (Mus musculus [2]): 0.27 mg/kg
LD50 [3]: 400 mg/kg
MAO-B activity (% of control) [4]: 75%
MAO-A activity remaining (% of control) [5]: 109%
Control (Rattus norvegicus [7]): 90%
inhibition in vivo at 10 mg/kg (Rattus norvegicus [12]): 33%
inhibition in vivo at 10 mg/kg (Rattus norvegicus [10]): 6.3%
inhibition in vivo at 10 mg/kg (Rattus norvegicus [11]): 10.9%
inhibition in vivo at 10 mg/kg (Rattus norvegicus [13]): 0%

Cn1nc(-c2cccc3ccccc23)n(C)c1=S
ED50 (Mus musculus [1]): > 50 mg/kg
ED50 (Mus musculus [2]): > 200 mg/kg
LD50 [3]: > 800 mg/kg

Cn1nc(-c2ccc(Cl)cc2Cl)n(C)c1=S
ED50 (Mus musculus [1]): > 25 mg/kg
LD50 [3]: > 80 mg/kg
